Assay results taken from ChEMBL document CHEMBL1201862, “PubChem BioAssay data set” (2004).
Each block holds one molecule with its values, some of them ahead of it. Calls of active or inactive are those of the source.

Tests used:
[1] = biological target: T1, Melanin-concentrating hormone receptor 1 (Homo sapiens, UniProt Q99705); assay: Late-stage fluorescence-based counterscreen for antagonists of the G-protein coupled receptor 7 (GPR7): cell-based dose response assay to identify antagonists of the melanin-concentrating hormone receptor 1 (MCHR1) Set 6.; type: functional
T1 sequence (Q99705 whole entry): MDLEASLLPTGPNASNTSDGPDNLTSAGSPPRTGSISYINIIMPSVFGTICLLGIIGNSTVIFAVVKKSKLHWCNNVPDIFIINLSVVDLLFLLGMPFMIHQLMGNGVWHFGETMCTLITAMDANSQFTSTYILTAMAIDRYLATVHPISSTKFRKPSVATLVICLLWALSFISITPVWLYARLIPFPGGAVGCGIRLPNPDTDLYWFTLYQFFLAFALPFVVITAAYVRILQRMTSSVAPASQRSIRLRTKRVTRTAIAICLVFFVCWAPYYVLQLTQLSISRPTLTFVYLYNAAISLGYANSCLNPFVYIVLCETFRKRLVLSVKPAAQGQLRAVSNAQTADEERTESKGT

[2] = biological target: Neuropeptides B/W receptor type 1 (Homo sapiens, UniProt P48145); assay: GPR7 antagonist potency, late-stage follow-up, cell-based, fluorescence, dose response, set 6 (AID 588583); type: functional
[3] = biological target: T1, Melanin-concentrating hormone receptor 1; assay: Late-stage fluorescence-based counterscreen for antagonists of the G-protein coupled receptor 7 (GPR7): cell-based dose response assay to identify antagonists of the melanin-concentrating hormone receptor 1 (MCHR1) Set 5.; type: functional
[4] = biological target: Dual specificity protein kinase CLK2 (Homo sapiens, UniProt P49760); type: functional
[5] = biological target: ALK tyrosine kinase receptor (Homo sapiens, UniProt Q9UM73); type: functional;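 further: ALK tested as one member of a kinase panel screen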
[6] = biological target: Serine/threonine-protein kinase D3 (Homo sapiens, UniProt O94806); type: functional;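 further: determined within a kinase panel screen, with PRKCN as the panel member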
[7] = biological target: Tyrosine-protein kinase Lck (Homo sapiens, UniProt P06239); type: functional;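 further: lck was assayed as one member of a kinase panel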
Sequence of Tyrosine-protein kinase Lck (P06239 whole entry): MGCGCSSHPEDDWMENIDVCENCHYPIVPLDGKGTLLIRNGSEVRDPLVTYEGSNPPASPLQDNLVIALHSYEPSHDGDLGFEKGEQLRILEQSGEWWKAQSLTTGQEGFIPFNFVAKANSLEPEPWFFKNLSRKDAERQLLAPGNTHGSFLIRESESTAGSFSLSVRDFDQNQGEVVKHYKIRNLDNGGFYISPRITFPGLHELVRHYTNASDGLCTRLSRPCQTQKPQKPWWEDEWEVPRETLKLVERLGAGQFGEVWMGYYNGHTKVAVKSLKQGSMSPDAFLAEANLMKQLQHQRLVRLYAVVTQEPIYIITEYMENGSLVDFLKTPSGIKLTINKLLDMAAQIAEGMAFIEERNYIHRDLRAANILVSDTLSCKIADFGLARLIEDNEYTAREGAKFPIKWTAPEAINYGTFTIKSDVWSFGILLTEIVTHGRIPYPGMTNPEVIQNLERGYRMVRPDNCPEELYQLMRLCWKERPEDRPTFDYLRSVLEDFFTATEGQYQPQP

[8] = biological target: Death-associated protein kinase 3 (Homo sapiens, UniProt O43293); type: functional;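 further: measured as one member of a kinome-wide profiling panel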
Activin receptor type-1 = Activin receptor type-1 (Homo sapiens, UniProt Q04771); assay: Navigating the Kinome. Panel member name: ACVR1; type: functional
[9] = biological target: Mitogen-activated protein kinase 8 (Homo sapiens, UniProt P45983); type: functional;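 further: value comes from one member of a kinome-wide kinase profiling panel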
Sequence of Mitogen-activated protein kinase 8 (P45983 whole entry): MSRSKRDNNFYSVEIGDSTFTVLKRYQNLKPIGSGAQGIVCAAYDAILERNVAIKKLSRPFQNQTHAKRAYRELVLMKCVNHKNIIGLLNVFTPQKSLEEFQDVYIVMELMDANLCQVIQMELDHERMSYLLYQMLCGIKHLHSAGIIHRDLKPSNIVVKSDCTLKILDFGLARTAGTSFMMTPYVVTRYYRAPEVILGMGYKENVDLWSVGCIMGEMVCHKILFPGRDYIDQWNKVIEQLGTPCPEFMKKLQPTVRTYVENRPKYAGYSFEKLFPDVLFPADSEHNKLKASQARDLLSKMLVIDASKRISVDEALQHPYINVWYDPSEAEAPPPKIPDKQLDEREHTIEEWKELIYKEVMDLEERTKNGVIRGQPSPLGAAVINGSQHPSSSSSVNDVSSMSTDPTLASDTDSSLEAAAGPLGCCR

[10] = biological target: Serine/threonine-protein kinase pim-1 (Homo sapiens, UniProt P11309); type: functional
Sequence of Serine/threonine-protein kinase pim-1 (P11309 whole entry): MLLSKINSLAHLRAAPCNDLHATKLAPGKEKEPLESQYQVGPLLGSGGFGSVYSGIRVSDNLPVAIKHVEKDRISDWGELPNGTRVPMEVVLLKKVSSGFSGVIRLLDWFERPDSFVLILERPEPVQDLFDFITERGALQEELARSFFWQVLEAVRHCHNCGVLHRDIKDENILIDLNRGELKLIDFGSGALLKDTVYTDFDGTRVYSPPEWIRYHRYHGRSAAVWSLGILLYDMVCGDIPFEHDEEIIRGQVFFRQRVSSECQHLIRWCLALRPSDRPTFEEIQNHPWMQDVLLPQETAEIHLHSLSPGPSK

Aurora kinase A = Aurora kinase A (Homo sapiens, UniProt O14965); type: functional;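 further: value from the Navigating the Kinome kinase panel profiling, panel entry STK6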
[11] = biological target: Tyrosine-protein kinase BTK (Homo sapiens, UniProt Q06187); type: functional
[12] = biological target: Serine/threonine-protein kinase PAK 4 (Homo sapiens, UniProt O96013); type: functional;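 further: value obtained within a kinome profiling panel in which PAK4 was one of the panel members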
[13] = biological target: Fibroblast growth factor receptor 1 (Homo sapiens, UniProt P11362); type: functional
Sequence of Fibroblast growth factor receptor 1 (P11362 whole entry, canonical isoform): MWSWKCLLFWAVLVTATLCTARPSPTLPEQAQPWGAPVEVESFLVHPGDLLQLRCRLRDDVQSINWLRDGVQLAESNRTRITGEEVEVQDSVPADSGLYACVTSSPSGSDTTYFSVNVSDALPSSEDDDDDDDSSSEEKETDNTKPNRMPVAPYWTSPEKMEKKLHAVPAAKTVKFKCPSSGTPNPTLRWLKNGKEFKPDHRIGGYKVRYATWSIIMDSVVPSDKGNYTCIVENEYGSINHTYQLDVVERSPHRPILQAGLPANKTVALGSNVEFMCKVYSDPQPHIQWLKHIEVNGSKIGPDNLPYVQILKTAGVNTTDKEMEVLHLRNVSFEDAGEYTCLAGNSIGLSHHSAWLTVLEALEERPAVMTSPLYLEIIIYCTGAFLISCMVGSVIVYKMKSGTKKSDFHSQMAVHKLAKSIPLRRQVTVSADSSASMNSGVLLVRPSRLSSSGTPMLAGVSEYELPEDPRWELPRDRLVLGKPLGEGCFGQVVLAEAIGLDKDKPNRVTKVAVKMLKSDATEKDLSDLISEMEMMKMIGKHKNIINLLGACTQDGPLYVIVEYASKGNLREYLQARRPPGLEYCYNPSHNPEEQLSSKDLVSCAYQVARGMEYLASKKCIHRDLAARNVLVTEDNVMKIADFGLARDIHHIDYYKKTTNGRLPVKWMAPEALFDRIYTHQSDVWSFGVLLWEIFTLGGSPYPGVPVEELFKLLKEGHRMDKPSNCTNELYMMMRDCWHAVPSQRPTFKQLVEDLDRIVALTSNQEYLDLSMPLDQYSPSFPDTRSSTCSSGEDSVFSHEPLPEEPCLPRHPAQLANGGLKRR

[14] = biological target: Casein kinase I isoform alpha (Homo sapiens, UniProt P48729); type: functional
[15] = biological target: Tyrosine-protein kinase JAK3 (Homo sapiens, UniProt P52333); type: functional
[16] = biological target: Mitogen-activated protein kinase 9 (Homo sapiens, UniProt P45984); type: functional;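 further: value from a kinome panel profiling assay, MAPK9 panel entry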
LIM domain kinase 1 = LIM domain kinase 1 (Homo sapiens, UniProt P53667); assay: Navigating the Kinome. Panel member name: LIMK1; type: functional
[17] = biological target: Serine/threonine-protein kinase TAO1 (Homo sapiens, UniProt Q7L7X3); type: functional
[18] = biological target: Glycogen synthase kinase-3 alpha (Homo sapiens, UniProt P49840); type: functional;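 further: GSK3A result taken from a broad kinome-wide kinase panel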
Activated CDC42 kinase 1 = Activated CDC42 kinase 1 (Homo sapiens, UniProt Q07912); assay: Navigating the Kinome. Panel member name: ACK1; type: functional
[19] = biological target: Serine/threonine-protein kinase Chk1 (Homo sapiens, UniProt O14757); type: functional;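 further: measured as one member of a kinome-wide kinase profiling panel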
[20] = biological target: G protein-coupled receptor kinase 5 (Homo sapiens, UniProt P34947); assay: Navigating the Kinome. Panel member name: GPRK5; type: functional
[21] = biological target: Cyclin-dependent kinase 5 (Homo sapiens, UniProt Q00535); type: functional;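 further: CDK5 measured as one member of a kinase profiling panel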
Sequence of Cyclin-dependent kinase 5 (Q00535 whole entry): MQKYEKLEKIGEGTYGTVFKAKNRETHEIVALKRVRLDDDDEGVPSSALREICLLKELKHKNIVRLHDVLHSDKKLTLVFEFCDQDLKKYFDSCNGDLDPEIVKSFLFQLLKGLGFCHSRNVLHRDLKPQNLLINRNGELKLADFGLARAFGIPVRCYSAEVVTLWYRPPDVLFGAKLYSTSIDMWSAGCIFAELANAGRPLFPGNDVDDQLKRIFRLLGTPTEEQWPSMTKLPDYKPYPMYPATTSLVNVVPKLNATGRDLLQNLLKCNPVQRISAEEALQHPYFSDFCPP

Focal adhesion kinase 1 = Focal adhesion kinase 1 (Homo sapiens, UniProt Q05397); type: functional;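 further: measured as one member of a kinome panel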
Aurora kinase B = Aurora kinase B (Homo sapiens, UniProt Q96GD4); type: functional
[22] = biological target: Tyrosine-protein kinase Fyn (Homo sapiens, UniProt P06241); type: functional
[23] = biological target: Serine/threonine-protein kinase Nek2 (Homo sapiens, UniProt P51955); type: functional
[24] = biological target: Cyclin-dependent kinase 8 (Homo sapiens, UniProt P49336); assay: Navigating the Kinome. Panel member name: CDK8; type: functional
[25] = biological target: Cyclin-dependent kinase 7 (Homo sapiens, UniProt P50613); type: functional;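 further: value comes from a kinome-wide kinase profiling panel in which CDK7 is one member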
Sequence of Cyclin-dependent kinase 7 (P50613 whole entry): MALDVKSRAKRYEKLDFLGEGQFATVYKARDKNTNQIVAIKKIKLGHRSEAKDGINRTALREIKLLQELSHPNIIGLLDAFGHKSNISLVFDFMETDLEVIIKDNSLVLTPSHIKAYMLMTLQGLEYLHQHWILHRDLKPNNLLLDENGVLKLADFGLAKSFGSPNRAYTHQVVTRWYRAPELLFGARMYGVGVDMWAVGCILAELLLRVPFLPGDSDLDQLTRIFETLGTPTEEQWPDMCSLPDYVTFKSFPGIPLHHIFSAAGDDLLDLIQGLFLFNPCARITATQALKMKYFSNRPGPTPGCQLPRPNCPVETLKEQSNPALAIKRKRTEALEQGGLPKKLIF

[26] = biological target: Vascular endothelial growth factor receptor 1 (Homo sapiens, UniProt P17948); type: functional;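 further: measured within a kinome-wide profiling panel, FLT1 as the panel member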
[27] = biological target: BDNF/NT-3 growth factors receptor (Homo sapiens, UniProt Q16620); type: functional;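 further: NTRK2 measured as one member of a broad kinome-wide kinase profiling panel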
Sequence of BDNF/NT-3 growth factors receptor (Q16620 whole entry): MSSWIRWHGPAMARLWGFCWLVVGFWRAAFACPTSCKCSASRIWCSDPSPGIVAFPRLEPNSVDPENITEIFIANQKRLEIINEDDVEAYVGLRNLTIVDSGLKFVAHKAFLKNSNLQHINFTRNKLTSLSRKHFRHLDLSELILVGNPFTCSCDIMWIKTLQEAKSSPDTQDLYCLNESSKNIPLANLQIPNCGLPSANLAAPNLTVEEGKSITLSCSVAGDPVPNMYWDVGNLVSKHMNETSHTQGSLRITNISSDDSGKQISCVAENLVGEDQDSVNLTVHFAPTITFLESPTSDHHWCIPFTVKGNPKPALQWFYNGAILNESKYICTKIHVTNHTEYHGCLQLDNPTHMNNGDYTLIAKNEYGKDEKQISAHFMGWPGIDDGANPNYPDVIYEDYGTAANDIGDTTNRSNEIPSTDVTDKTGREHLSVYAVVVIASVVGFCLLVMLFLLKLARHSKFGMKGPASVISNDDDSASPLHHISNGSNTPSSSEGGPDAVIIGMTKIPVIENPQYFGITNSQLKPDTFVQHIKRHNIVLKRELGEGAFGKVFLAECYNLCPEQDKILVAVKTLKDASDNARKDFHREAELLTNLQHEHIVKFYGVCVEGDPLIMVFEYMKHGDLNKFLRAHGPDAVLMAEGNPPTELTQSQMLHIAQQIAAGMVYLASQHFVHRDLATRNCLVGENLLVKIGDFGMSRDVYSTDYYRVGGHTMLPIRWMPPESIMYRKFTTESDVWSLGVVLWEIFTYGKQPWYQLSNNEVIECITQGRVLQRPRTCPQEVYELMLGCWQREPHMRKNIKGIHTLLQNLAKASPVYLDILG

[28] = biological target: Dual specificity protein kinase CLK4 (Homo sapiens, UniProt Q9HAZ1); type: functional
[29] = biological target: Mitogen-activated protein kinase kinase kinase kinase 4 (Homo sapiens, UniProt O95819); type: functional
[30] = biological target: Macrophage-stimulating protein receptor (Homo sapiens, UniProt Q04912); assay: Navigating the Kinome. Panel member name: MST1R; type: functional
[31] = biological target: Dual specificity mitogen-activated protein kinase kinase 2 (Homo sapiens, UniProt P36507); assay: Navigating the Kinome. Panel member name: MAP2K2; type: functional
[32] = biological target: Dual specificity tyrosine-phosphorylation-regulated kinase 1A (Homo sapiens, UniProt Q13627); type: functional;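 further: measured against DYRK1A as one member of a broad kinome profiling panel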
[33] = biological target: Calcium/calmodulin-dependent protein kinase type II subunit alpha (Homo sapiens, UniProt Q9UQM7); assay: Navigating the Kinome. Panel member name: CAMK2A; type: functional
Sequence of Calcium/calmodulin-dependent protein kinase type II subunit alpha (Q9UQM7 whole entry): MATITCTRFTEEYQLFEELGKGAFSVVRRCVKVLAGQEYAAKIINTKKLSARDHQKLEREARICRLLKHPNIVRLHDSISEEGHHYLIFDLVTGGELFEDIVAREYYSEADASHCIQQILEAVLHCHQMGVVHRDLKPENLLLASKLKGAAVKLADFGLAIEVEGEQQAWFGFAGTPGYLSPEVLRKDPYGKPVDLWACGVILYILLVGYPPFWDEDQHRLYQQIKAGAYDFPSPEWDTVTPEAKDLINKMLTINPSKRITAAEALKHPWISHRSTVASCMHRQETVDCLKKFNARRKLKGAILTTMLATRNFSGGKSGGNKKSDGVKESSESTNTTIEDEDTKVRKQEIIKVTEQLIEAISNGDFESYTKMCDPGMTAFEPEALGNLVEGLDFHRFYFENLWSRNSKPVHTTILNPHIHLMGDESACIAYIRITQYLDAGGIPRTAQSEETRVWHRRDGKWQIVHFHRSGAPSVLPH

[34] = biological target: Mitogen-activated protein kinase 14 (Homo sapiens, UniProt Q16539); type: functional;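 further: part of a kinome-wide panel, MAPK14 entry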
[35] = NIH-3T3 fibroblast cytotoxicity, dose response, cytotoxicity control, cell-based, fluorescence, Alamar Blue, secondary assay (AID 2327); type: functional;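 further: NIH-3T3 mouse fibroblasts cultured with fluconazole at 8 µg/mL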
[36] = C. albicans growth with fluconazole, confirmation, fluorescence, retest (AID 2467); type: functional, cell-based
[37] = inhibitors of intracellular T. cruzi replication, confirmation, NIH3T3 host cells, beta-gal luminescence (AID 2044); type: functional, cell-based;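 further: intracellular parasites grown in NIH/3T3 mouse fibroblasts as host cells; luminescent beta-galactosidase reporter signal from transgenic T. cruzi replicating inside host cells; inhibitors lower the luminescence signal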
[38] = biological target: Serine/threonine-protein phosphatase (Candida dubliniensis (strain CD36 / CBS 7987 / NCPF 3949 / NRRLY-17841) (Yeast), UniProt B9W6M3); assay: calcineurin pathway inhibitors in yeast reporter, dose response, S. cerevisiae, CDRE-lacZ, luminescence, secondary (AID 2388); type: functional, cell-based;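 further: yeast reporter cells carrying a calcineurin-responsive lacZ construct stimulated with calcium chloride; luminescent beta-galactosidase reporter signal in whole cells rather than isolated phosphatase activity; potency for inhibition where a drop in reporter signal means calcineurin blockade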
[39] = cytotoxicity toward NIH3T3 fibroblasts, dose response, counter-screen, cell-based, ATP luminescence, mouse fibroblasts (AID 2010); type: functional;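 further: cells exposed to compound for about 90 hours before reading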
Candida albicans [40] = assay: C. albicans growth inhibition with fluconazole, dose response, antifungal resistance reversal project, CaCi-2 strain, Alamar Blue, dry powder, set 2 (AID 488930); type: functional, organism-based
HEK293 = assay: inhibitors of LMP1-driven NF-kB reporter, dose response, cell-based, HEK293, luciferase, cherry-pick (AID 588343); type: functional; details: Homo sapiens
Candida albicans [41] = assay: fluconazole resistance reversal in C. albicans, dose response, CaCi-2 strain, Alamar Blue, dry powder, set 4 (AID 488943); type: functional, organism-based
Candida albicans [42] = assay: growth inhibition of resistant C. albicans, dose response, CaCi-8, fluconazole, Alamar Blue, dry powder (AID 488807); type: functional, organism-based
Candida albicans [43] = assay: single-agent growth inhibition of C. albicans, dose response, counter-screen for antifungal drug resistance project, C. albicans CaCi-2, dry powder (AID 488802); type: functional, organism-based
Candida albicans [44] = assay: growth inhibition of azole-resistant C. albicans, dose response, CaCi-8 strain, Alamar Blue, dry powder, set 2 (AID 488909); type: functional, organism-based
NIH3T3 = assay: cytotoxicity in NIH-3T3 fibroblasts, dose response, cytotoxicity control for antifungal drug resistance project, cell-based, Alamar Blue, fluconazole, dry powder (AID 488809); type: functional; details: Mus musculus
[45] = biological target: ATP-dependent molecular chaperone HSP82 (Candida albicans (strain WO-1) (Yeast), UniProt C4YTQ8); assay: loss of DOC-induced GRE-beta-galactosidase reporter signal, dose response, Hsp90 inhibitor project, S. cerevisiae, luminescence (AID 2400); type: functional, cell-based;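 further: beta-galactosidase luminescence from glucocorticoid response element reporter as proxy for Hsp90 function; inhibitor potency where signal loss means Hsp90 inhibition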
Protein Wnt-3a = Protein Wnt-3a (Mus musculus, UniProt P27467); assay: Wnt3a-driven reporter signaling inhibition, dose response, selectivity assay for Gli-SUFU antagonist project, Wnt-LIGHT cells, luminescence (AID 651570); type: functional; details: read-out: IC50_Mean;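 further: Wnt-LIGHT reporter cells stimulated with conditioned medium from Wnt3a-producing cells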
Sequence of Protein Wnt-3a (P27467 whole entry): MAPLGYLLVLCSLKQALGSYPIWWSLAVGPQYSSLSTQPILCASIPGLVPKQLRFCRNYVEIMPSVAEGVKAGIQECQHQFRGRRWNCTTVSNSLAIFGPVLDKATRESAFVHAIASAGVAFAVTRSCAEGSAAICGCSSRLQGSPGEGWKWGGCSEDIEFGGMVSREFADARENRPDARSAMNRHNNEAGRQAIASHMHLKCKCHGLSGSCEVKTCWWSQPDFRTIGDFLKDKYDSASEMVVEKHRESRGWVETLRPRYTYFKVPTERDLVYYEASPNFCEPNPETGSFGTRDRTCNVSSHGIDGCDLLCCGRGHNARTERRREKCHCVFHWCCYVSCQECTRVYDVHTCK

- IC50 [1]: 0.83 µM (active)
- IC50 [2]: 0.83 µM (active)
Structure (SMILES): N#CC(c1ccc(Cl)cc1)c1c(Cl)cnn(Cc2cccc3ccccc23)c1=O (stereo not given)

- IC50 [3]: > 20 µM (inactive)
Structure (SMILES): COc1ccc(Oc2c(Cl)cnn(C3c4ccccc4CCc4ccccc43)c2=O)cc1

- Ki [4]: > 3.98 µM (inactive)
- Ki [5]: > 6.31 µM (inactive)
- Ki [6]: > 3.98 µM (inactive)
- Ki [7]: > 6.31 µM (inactive)
- Ki (Activin receptor type-1): > 3.98 µM (inactive)
- Ki [9]: > 5.01 µM (inactive)
- Ki [10]: > 6.31 µM (inactive)
- Ki (Aurora kinase A): 1.26 µM (active)
- Ki [11]: > 6.31 µM (inactive)
- Ki [12]: > 5.01 µM (inactive)
- Ki [13]: > 3.98 µM (inactive)
- Ki [14]: 2.51 µM (active)
- Ki [15]: > 5.01 µM (inactive)
- Ki [16]: > 3.98 µM (inactive)
- Ki (LIM domain kinase 1): 0.794 µM (active)
- Ki [17]: > 6.31 µM (inactive)
- Ki [18]: > 3.98 µM (inactive)
- Ki (Activated CDC42 kinase 1): > 3.98 µM (inactive)
- Ki [19]: 0.398 µM (active)
- Ki [20]: > 3.98 µM (inactive)
- Ki [21]: 2.51 µM (active)
- Ki (Focal adhesion kinase 1): > 6.31 µM (inactive)
- Ki (Aurora kinase B): > 3.98 µM (inactive)
- Ki [22]: > 6.31 µM (inactive)
- Ki [23]: 2 µM (active)
- Ki [24]: 3.16 µM (active)
- Ki [25]: > 3.98 µM (inactive)
- Ki [26]: > 3.98 µM (inactive)
- Ki [27]: > 3.98 µM (inactive)
- Ki [28]: 0.501 µM (active)
- Ki [29]: > 5.01 µM (inactive)
- Ki [30]: > 3.98 µM (inactive)
- Ki [31]: > 3.98 µM (inactive)
- Ki [32]: 1 µM (active)
- Ki [33]: > 3.98 µM (inactive)
- Ki [34]: > 3.98 µM (inactive)
Structure (SMILES): Nc1ccc2c(C(=O)O)n(-c3ccccc3)nc2c1
- Ki [8]: > 5.01 µM (inactive)

Structure (SMILES): O=C(c1ccc(Cl)cc1)N1CCN(c2ccnc3cc(Cl)ccc23)CC1
- EC50 [35]: > 150 µM (inactive)
- EC50 [36]: 0.742 µM (active)
- EC50 [37]: 1.34 µM (active)
- EC50 [38]: > 180 µM (inactive)
- EC50 [39]: > 60 µM (not active)
- AC50 (Candida albicans [40]): 0.522 µM (active)
- AC50 (HEK293): 16.4 µM (active)
- AC50 (Candida albicans [41]): 0.306 µM (active)
- AC50 (Candida albicans [41]; Candida albicans): 0.362 µM (active)
- AC50 (Candida albicans [42]): 0.87 µM (active)
- AC50 (Candida albicans [43]): 3.73 µM (active)
- AC50 (Candida albicans [44]): 3.46 µM (active)
- AC50 (NIH3T3): 22.9 µM (active)
- EC50 [45]: > 150 µM (inactive)
- IC50 (Protein Wnt-3a): 8.3 µM (active)
